Where no end group is shown, it is not given here.
Key:
[1] = system: intracellular reactive oxygen species (ROS); assay: Intracellular ROS by H2DCFDA fluorescence; assay type: cell-based, rat; details: 50 μmol/L H2O2, with or without dantrolene pretreatment
Method: (§1) Intracellular reactive oxygen species (ROS) formation was measured in rat cardiac myocytes using a fluorescent probe, 5-(and -6)-chloromethyl-2′,7′-dichlorodihydrofluoroscein diacetate (H2DCFDA, 10 μmol/L) (Terentyev et al., Circ Res. 2008; 103:1466-1472). This assay is widely used as a reliable method for the measurement of intracellular ROS such as hydrogen peroxide, hydroxyl radicals, and hydroperoxide. The H2DCFDA dye was excited with the 488 nm and emission was collected at 500-530 nm. The content of free thiols in RyR2 was determined based on the monobromobimane (mBB, Calbiochem) fluorescence intensity, as previously described (Terentyev et al., Circ Res. 2008; 103:1466-1472; Ho et al., J Physiol. 2011; 19:4697-4708). In brief, myocytes were incubated with mBB for 1 hr. Myocytes were then lysed in lysis buffer and loaded on 6% SDS-PAGE gels. The fluorescence emission intensity of the RyR2-bound mBB was measured at 482 nm by exciting at 382 nm. mBB fluorescence was normalized to the RyR2 amount, which was determined using quantitative densitometry of Coomassie Blue-stained gels.
(§2) To monitor intracellular ROS level, we used H2DCFDA (10 μmol/L). […] To assess whether dantrolene can attenuate the extent of RyR2 thiol modification in H2O2-treated myocytes, we used a monobromobimane (mBB) fluorescence labeling assay.

[2] = system: RyR2; assay: RyR2 free thiol content by monobromobimane (mBB) fluorescence; assay type: cell-based, rat; details: 50 μmol/L H2O2, with or without dantrolene pretreatment
Method: as §1, §2

[3] = target: RyR2 (Rattus norvegicus, UniProt B0LPN4); assay: F-DPc10 wash-in and washout kinetics at the myocyte Z-line; assay type: binding; set-up: endogenous in cells; host or cells: saponin-permeabilized adult rat ventricular myocytes; details: for effect on HF647-DPc10 wash-out kinetics: dantrolene 1 μmol/L, NF-DPc10 5 μmol/L
Chain of RyR2 (Rattus norvegicus, UniProt B0LPN4) (B0LPN4 whole entry): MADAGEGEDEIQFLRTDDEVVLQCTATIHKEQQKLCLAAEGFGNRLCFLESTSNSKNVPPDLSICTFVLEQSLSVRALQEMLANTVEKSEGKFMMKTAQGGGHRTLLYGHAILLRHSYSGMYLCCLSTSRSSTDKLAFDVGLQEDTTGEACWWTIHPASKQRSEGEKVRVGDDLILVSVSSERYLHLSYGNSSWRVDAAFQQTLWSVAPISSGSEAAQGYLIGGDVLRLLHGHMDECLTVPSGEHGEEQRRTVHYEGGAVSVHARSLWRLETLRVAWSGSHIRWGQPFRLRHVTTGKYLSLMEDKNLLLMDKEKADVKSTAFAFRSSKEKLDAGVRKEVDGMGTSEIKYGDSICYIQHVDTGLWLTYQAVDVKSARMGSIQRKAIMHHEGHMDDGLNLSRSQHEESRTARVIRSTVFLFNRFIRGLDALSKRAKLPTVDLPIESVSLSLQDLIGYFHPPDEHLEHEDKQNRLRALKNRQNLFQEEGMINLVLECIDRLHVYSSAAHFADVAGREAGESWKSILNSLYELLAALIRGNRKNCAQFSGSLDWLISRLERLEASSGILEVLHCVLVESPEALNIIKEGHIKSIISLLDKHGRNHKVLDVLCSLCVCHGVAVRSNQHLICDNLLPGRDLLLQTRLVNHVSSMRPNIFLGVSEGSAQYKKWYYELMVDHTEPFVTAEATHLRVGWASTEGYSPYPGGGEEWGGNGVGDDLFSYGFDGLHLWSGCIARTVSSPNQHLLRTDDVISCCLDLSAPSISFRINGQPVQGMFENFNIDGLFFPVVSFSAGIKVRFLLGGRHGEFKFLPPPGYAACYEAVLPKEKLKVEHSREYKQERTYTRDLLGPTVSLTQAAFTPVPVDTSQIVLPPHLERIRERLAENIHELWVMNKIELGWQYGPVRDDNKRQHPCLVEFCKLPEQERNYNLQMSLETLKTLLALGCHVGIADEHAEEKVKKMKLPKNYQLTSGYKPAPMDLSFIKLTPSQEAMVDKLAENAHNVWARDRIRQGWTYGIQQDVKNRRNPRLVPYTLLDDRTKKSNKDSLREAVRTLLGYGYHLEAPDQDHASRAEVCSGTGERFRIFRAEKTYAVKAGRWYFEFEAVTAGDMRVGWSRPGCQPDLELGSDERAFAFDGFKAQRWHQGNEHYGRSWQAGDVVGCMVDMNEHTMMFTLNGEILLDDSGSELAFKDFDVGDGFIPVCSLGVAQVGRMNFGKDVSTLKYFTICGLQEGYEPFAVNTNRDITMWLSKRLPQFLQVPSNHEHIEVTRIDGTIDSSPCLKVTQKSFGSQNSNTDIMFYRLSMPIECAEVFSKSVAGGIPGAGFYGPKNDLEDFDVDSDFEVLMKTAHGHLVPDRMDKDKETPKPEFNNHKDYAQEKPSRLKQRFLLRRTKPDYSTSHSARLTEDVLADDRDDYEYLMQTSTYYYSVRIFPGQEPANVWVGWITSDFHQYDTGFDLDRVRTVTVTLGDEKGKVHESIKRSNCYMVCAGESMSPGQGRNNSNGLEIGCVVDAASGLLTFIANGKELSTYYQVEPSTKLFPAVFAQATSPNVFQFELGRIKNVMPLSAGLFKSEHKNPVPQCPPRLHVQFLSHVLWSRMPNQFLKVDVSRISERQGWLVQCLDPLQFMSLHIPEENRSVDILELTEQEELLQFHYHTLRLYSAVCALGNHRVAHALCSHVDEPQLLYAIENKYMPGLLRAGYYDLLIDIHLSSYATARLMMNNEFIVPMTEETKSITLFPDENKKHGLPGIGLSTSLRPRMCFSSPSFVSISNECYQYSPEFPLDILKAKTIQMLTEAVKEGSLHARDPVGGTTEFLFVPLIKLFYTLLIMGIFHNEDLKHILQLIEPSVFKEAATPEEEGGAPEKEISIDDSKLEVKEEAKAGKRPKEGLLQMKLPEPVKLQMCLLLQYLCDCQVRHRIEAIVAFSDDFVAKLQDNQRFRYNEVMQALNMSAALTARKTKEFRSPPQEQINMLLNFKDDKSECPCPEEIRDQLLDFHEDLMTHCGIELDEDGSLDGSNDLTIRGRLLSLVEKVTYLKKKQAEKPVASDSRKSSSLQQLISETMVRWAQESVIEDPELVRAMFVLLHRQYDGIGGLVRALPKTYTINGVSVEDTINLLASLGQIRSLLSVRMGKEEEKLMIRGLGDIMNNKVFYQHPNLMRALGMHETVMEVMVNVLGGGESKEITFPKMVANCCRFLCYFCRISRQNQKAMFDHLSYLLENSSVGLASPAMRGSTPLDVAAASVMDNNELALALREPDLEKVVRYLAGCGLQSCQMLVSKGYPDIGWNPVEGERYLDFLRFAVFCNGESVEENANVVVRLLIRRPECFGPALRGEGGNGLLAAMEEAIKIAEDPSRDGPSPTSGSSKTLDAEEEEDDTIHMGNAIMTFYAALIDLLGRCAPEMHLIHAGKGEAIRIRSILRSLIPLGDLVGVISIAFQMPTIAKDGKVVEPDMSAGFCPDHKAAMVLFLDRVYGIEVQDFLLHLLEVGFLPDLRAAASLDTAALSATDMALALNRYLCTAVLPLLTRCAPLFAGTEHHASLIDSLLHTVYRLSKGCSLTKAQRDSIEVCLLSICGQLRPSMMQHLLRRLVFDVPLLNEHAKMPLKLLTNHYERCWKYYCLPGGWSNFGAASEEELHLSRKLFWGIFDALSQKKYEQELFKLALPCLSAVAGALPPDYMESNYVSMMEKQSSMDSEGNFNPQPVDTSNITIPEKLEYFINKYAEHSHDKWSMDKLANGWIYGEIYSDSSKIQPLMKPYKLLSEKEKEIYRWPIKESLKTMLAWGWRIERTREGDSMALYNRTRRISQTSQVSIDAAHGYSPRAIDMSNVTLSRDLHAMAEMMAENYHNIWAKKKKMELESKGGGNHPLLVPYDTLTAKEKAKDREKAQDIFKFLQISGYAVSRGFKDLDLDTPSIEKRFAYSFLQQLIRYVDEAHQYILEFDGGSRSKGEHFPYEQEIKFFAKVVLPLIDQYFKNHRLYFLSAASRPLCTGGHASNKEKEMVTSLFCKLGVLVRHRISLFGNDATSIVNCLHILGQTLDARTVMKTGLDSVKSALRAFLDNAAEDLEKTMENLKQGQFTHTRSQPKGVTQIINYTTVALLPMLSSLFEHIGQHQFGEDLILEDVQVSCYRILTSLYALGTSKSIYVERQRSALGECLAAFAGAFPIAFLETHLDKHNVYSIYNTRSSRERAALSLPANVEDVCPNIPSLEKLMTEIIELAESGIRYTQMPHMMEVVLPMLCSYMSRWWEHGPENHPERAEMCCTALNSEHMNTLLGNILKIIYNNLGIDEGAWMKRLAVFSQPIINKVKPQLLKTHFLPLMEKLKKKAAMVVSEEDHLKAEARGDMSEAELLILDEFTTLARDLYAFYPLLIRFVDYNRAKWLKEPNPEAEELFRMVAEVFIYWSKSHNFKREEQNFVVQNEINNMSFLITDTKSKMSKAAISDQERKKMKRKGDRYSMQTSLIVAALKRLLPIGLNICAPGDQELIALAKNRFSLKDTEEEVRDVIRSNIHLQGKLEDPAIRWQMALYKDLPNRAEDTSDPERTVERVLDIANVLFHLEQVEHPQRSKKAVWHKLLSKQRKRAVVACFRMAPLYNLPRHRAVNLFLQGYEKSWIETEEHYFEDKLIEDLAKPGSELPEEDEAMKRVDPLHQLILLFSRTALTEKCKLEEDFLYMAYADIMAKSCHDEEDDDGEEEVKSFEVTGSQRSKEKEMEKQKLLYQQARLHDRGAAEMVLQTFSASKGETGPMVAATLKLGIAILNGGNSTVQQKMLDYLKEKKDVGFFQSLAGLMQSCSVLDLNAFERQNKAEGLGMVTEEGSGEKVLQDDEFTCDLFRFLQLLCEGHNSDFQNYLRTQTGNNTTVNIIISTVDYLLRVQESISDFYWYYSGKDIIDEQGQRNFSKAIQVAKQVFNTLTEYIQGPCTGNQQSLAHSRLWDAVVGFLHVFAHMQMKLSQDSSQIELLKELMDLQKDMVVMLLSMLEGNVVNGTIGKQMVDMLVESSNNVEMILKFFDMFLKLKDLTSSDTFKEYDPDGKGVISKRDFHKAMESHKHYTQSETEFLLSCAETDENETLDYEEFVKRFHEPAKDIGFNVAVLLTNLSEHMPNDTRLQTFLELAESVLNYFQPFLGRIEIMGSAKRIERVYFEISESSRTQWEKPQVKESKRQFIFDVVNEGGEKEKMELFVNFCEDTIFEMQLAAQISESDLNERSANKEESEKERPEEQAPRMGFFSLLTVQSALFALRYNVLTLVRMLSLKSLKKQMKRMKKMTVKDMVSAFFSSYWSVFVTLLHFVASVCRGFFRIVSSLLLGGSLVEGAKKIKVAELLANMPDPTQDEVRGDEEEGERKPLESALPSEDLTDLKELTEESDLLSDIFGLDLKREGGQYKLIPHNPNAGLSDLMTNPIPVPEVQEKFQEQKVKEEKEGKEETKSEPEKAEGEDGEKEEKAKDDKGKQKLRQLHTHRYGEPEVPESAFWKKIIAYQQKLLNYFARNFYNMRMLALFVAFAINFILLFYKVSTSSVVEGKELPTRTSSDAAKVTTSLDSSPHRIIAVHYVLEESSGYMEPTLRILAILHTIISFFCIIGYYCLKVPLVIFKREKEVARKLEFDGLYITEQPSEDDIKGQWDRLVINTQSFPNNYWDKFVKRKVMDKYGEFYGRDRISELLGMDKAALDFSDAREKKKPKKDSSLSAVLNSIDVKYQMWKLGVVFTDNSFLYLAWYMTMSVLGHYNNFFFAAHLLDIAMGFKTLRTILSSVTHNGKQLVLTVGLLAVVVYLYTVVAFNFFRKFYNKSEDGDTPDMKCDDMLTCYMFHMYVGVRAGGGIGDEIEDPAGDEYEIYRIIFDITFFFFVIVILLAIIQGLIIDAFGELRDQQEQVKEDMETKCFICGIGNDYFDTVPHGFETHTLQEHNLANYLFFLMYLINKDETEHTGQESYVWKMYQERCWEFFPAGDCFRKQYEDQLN
Method: To characterize DPc10-binding kinetics at Z-lines, we performed F-DPc10 wash-in (500 nmol/L) and washout experiments in permeabilized myocytes (FIG. 10A). Association (τwash-in=79.0±3.2 minutes) and dissociation (τwashout=149.8±4.4 minutes) were very slow compared with similar FKBP12.6 measurements (Guo et al., Circ Res, 2010; 106:1743-1752). From the wash-in/washout measurements, we calculated the association and dissociation rates constants, kon and koff, respectively, according to the following equation: kwash-in=[F-DPc10]kon+koff where kwashout≈koff and k=1/τ (s^−1). Accordingly, kon=202±20 (L mol^−1 s^−1) and koff=0.11±0.01 (10^−3 s^−1). […] We repeated this kinetic analysis using FRET between FKBP12.6 and DPc10, thus assessing the RyR2-specific DPc10 binding (FIG. 11A AND 11B). […] Based on these kinetic and affinity analyses, we infer that most of the Z-line-specific DPc10 binding is to RyR2. This is also consistent with Bmax, which would imply ≈1 DPc10 per RyR2 monomer.
We were intrigued by the slow kwash-in and conducted measurements to further understand the basis of this slow association. We tested the hypothesis that at resting [Ca^2+]i, DPc10 access to its RyR2 binding site is sterically hindered. If the N-terminal and central domains are tightly zipped to each other, then this interaction may occlude the DPc10-binding site on the RyR2, thus limiting the kon for DPc10. Alternatively, a limiting factor may be the rate at which DPc10 adopts a conformation that can bind to RyR2. To discern between these mechanisms, we determined the effect of [F-DPc10] on τwash-in. If the small fraction of DPc10 in the right conformation limits binding rate, then τwash-in should be faster at higher [F-DPc10], according to Equation. […] Instead, a 10-fold increase in [F-DPc10] had no significant effect on the τwash-in, although it did increase Bmax (FIG. 10B). The same was seen when using FKBP12.6-DPc10 FRET to assess τwash-in with 0.5 vs 5 μmol/L HF647-DPc10 (FIG. 12A AND 12B).
In our working model, under resting conditions, the RyR2 closed state may be stabilized by the interaction between the N-terminal and central domain in the zipped state. We hypothesized that conditions that promote RyR2 opening might enhance the rate of unzipping and accelerate τwash-in for F-DPc10. To test this, we first monitored F-DPc10 wash-in at elevated Ca^2+ (500 nmol/L). However, the 13% faster mean τwash-in was not significant (FIG. 13A). […] Thus, we preincubated myocytes with ryanodine (100 μmol/L) plus caffeine ([…]), which are known to favor long RyR2 openings and were reported to cause RyR2 domain unzipping in HEK293 cells (Liu et al., J Cell Sci, 2010; 123: 1775-1784). Ryanodine+caffeine produced a 21% faster τwash-in (P=0.002; FIG. 13B). However, the most significant effect was seen after presaturating RyR2 with NF-DPc10 (and then NF-DPc10 washout with F-DPc10 present; FIG. 13A). […] Assuming that koff of NF-DPc10 is the same as for F-DPc10 and using Equation, the kon is increased by 3.2-fold by unzipping as a result of prebinding of NF-DPc10 to the RyR2. Our working hypothesis is that the RyR2 open state may increase the probability of an RyR2 shifting to the unzipped state and may allow faster F-DPc10 wash-in. It also seems that the RyR2 open state (favored by caffeine-ryanodine) differs from the unzipped state (bound with DPc10).
Both FKBP12.6 and CaM bind to the RyR2 and can reduce channel opening, which might alter DPc10 binding. […] Neither CaM nor FKBP12.6 pretreatment altered M-line F-DPc10 fluorescence (FIG. 15). […] We infer that CaM stabilizes the domain interaction between N-terminal and central domains in the zipped state and thereby may reduce DPc10 access to its binding site. To test for direct CaM-DPc10 interaction, we performed control FRET measurements between donor-labeled CaM and acceptor-labeled DPc10 in solution in the absence of RyR. The maximal FRET efficiency (<1%) ruled out direct CaM-DPc10 interaction. […]

Compound | intracellular ROS level [1] | content of free thiols on RyR2 / RyR2 oxidation level [2] | reduction of maximal HF647-DPc10 binding (Bmax) ([3]; 1 μmol/L dantrolene) [%] | effect on HF647-DPc10 wash-out kinetics [3] | acceleration of F-DPc10 association, by a factor of ([3]; after presaturating RyR2 with NF-DPc10, then washout with F-DPc10 present) | increase of kon of F-DPc10 ([3]; prebinding of NF-DPc10 to RyR2) [fold] | increase in kon of F-DPc10 ([3]; pretreatment with NF-DPc10)
OO [H2O2, hydrogen peroxide] | increased | significantly decreased | – | – | – | – | –
O=C1CN(/N=C/c2ccc(-c3ccc([N+](=O)[O-])cc3)o2)C(O)=N1 [dantrolene] | does not alter | did not attenuate | 74 | had no effect | – | – | –
GFCPDHKAAMVLFLDRVYGIEVQDFLLHLLEVGFLP [DPc10] | – | – | – | accelerate | ≈ 2 | 3.2 | ≈ 320%

From patent US10281476B2, “Methods to identify modulators of RyR calcium channels” (REGENTS OF THE UNIVERSITY OF MINNESOTA, priority 2013, dated 2019)
